Values quoted from earlier work as cited in US20110257090A1, “SOLUTIONS FOR VOLUME THERAPY” (FRESENIUS KABI DEUTSCHLAND GMBH, priority 2008, published 2011).

System: cultured mammalian cells
Conditions: long-term studies

For O=S(=O)(O)CCN(CCO)CCO [BES, N,N-bis(2-hydroxyethyl)-2-aminoethanesulfonic acid], the “toxicity to cultured mammalian cells” value is listed as “non-toxic”.
